Where two headings read alike, the source gives them in different places.
Legend:
[1] = system: HGPRT; details: linear with time over 60 min, 5 × 10^6 cells/ml in the sonicate
Method: HGPRT activity was determined using a modification of a published technique.
The reaction was quenched by addition of 0.025 ml of 50 mM EDTA at 0°. DE-81 2.5-cm disks (DEAE cellulose; Whatman) were spotted with 0.025 ml of the quenched reaction mixture and allowed to dry at 25°. Disks were rinsed at 25° first with 40 ml of 1 mM ammonium formate and then with 20 ml of ethanol in a standard filter-holding chimney (Millipore). Disks were dried for 10 min at 60° in scintillation vials, to which 15 ml of Aquasol (New England Nuclear) were added after the vials had cooled. The vials were then counted on a Packard 2002 scintillation counter. With this system, the overall efficiency of counting phosphorylated purines bound to DE-81 filters was 4.10± 0.03% (S.E., n = 7).

[2] = system: Mutant Type (HGPRT-) clones (6TG^R); assay: cells; details: Homo sapiens
Method: Cell survival was measured by a soft-agar plating procedure that was originally devised for mouse myeloma cells and latter extended to human lymphoblasts. […] For plating efficiencies, confluent feeder layers were used of a fibroblast strain derived from a patient afflicted with the Lesch-Nyhan syndrome. […] The feeder layer was overlayed with a separation layer formed from 2.5 ml of RPMI 1640 medium containing 0.25% agarose (M.C.I. Biomedical), which was allowed to gel at room temperature (10 min). The cells were suspended in 2.5 ml of 0.25% agarose-RPMI 1640 layered over the separator layer; this layer was then allowed to gel before the plates were incubated at 37° in humidified air containing 5% CO2. On the following day, 1.0 ml of RPMI 1640 medium was placed on each plate, and another 1.0 ml was added 6 days later. Although microscopic colonies could be counted on day 7, 14 days were allowed in order to permit an increase in colony size to about 0.4 mm because this permitted the use of an automatic colony counter (Artek Systems). Cell counts in suspension were accomplished by counting samples on an electronic particle counter (Coulter Electronics).
HGPRT activity and plating efficiencies as a function of 6TG concentration for clones sensitive (6TG^S) or resistant (6TG^R) to 10 μg/ml of 6TG were determined.
Plating efficiencies were determined following the procedure of Example 1.

[3] = system: human lymphoblast line (MIT-2)
[4] = in vitro; details: human, mit-2 lymphoblasts
[5] = Stability of MNU solution (electronic absorption spectra); format: physicochemical; details: PBS, pH 7.2, kept cold
Method: Crystalline form methylnitrosourea (MNU) was dessicated and preweighed into aliquots. The quantitative electronic absorption spectra of one of these preweighed aliquots dissolved in phosphate buffered saline (PBS), pH7.2, was determined and found to remain stable for more than 60 minutes when kept cold. Fresh solutions were prepared 10 minutes prior to dosing by dissolving preweighed aliquots in PBS and filter-sterilizing the solutions. They were then used immediately for dosing cultures and simultaneously characterized by electronic absorbance spectra.

[6] = system: 6TG^S and 6TG^R clones; assay: Dose-dependent sensitivity to MNU of 6TG^R clones compared with wild-type (6TG^S)

O=c1[nH]cnc2nc[nH]c12 [hypoxanthine]
phosphoribosylation velocity [1]: 6.4 ± 0.4 mmoles of hypoxanthine/min

Nc1nc2nc[nH]c2c(=S)[nH]1 [6TG, 6-thioguanine]
viability at 5 µg/mL ([2]; P1(0.5), read-out: RELATIVE SURVIVING FRACTION, clone P10, 5 μg/ml 6TG): 81% | viability at 5 µg/mL ([2]; read-out: RELATIVE SURVIVING FRACTION, clone B2, 5 μg/ml 6TG): 94% | viability at 10 µg/mL ([2]; read-out: RELATIVE SURVIVING FRACTION, clone B2, 10 μg/ml 6TG): 100% | viability at 20 µg/mL ([2]; read-out: RELATIVE SURVIVING FRACTION, clone B2, 20 μg/ml 6TG): 71% | viability at 5 µg/mL ([2]; read-out: RELATIVE SURVIVING FRACTION, clone B4, 5 μg/ml 6TG): 160% | viability at 10 µg/mL ([2]; read-out: RELATIVE SURVIVING FRACTION, clone B4, 10 μg/ml 6TG): 150% | viability at 20 µg/mL ([2]; read-out: RELATIVE SURVIVING FRACTION, clone B4, 20 μg/ml 6TG): 110% | viability at 5 µg/mL ([2]; read-out: RELATIVE SURVIVING FRACTION, clone B6, 5 μg/ml 6TG): 110% | viability at 10 µg/mL ([2]; read-out: RELATIVE SURVIVING FRACTION, clone B6, 10 μg/ml 6TG): 82% | viability at 20 µg/mL ([2]; read-out: RELATIVE SURVIVING FRACTION, clone B6, 20 μg/ml 6TG): 76% | viability at 5 µg/mL ([2]; read-out: RELATIVE SURVIVING FRACTION, clone B7, 5 μg/ml 6TG): 120% | viability at 10 µg/mL ([2]; read-out: RELATIVE SURVIVING FRACTION, clone B7, 10 μg/ml 6TG): 66% | viability at 20 µg/mL ([2]; read-out: RELATIVE SURVIVING FRACTION, clone B7, 20 μg/ml 6TG): 57% | viability at 5 µg/mL ([2]; read-out: RELATIVE SURVIVING FRACTION, clone B8, 5 μg/ml 6TG): 100% | viability at 10 µg/mL ([2]; read-out: RELATIVE SURVIVING FRACTION, clone B8, 10 μg/ml 6TG): 93% | viability at 20 µg/mL ([2]; read-out: RELATIVE SURVIVING FRACTION, clone B8, 20 μg/ml 6TG): 80% | viability at 5 µg/mL ([2]; read-out: RELATIVE SURVIVING FRACTION, clone B9, 5 μg/ml 6TG): 110% | viability at 10 µg/mL ([2]; read-out: RELATIVE SURVIVING FRACTION, clone B9, 10 μg/ml 6TG): 120% | viability at 20 µg/mL ([2]; read-out: RELATIVE SURVIVING FRACTION, clone B9, 20 μg/ml 6TG): 68% | viability at 5 µg/mL ([2]; read-out: RELATIVE SURVIVING FRACTION, clone B13, 5 μg/ml 6TG): 86% | viability at 10 µg/mL ([2]; read-out: RELATIVE SURVIVING FRACTION, clone B13, 10 μg/ml 6TG): 100% | viability at 20 µg/mL ([2]; read-out: RELATIVE SURVIVING FRACTION, clone B13, 20 μg/ml 6TG): 45% | viability at 5 µg/mL ([2]; read-out: RELATIVE SURVIVING FRACTION, clone B15, 5 μg/ml 6TG): 71% | viability at 10 µg/mL ([2]; read-out: RELATIVE SURVIVING FRACTION, clone B15, 10 μg/ml 6TG): 87% | viability at 20 µg/mL ([2]; read-out: RELATIVE SURVIVING FRACTION, clone B15, 20 μg/ml 6TG): 37% | viability at 5 µg/mL ([2]; read-out: RELATIVE SURVIVING FRACTION, clone B17, 5 μg/ml 6TG): 110% | viability at 10 µg/mL ([2]; read-out: RELATIVE SURVIVING FRACTION, clone B17, 10 μg/ml 6TG): 140% | viability at 20 µg/mL ([2]; read-out: RELATIVE SURVIVING FRACTION, clone B17, 20 μg/ml 6TG): 160% | viability at 5 µg/mL ([2]; read-out: RELATIVE SURVIVING FRACTION, clone B20, 5 μg/ml 6TG): 90% | viability at 10 µg/mL ([2]; read-out: RELATIVE SURVIVING FRACTION, clone B20, 10 μg/ml 6TG): 83% | viability at 20 µg/mL ([2]; read-out: RELATIVE SURVIVING FRACTION, clone B20, 20 μg/ml 6TG): 51% | viability at 10 µg/mL ([2]; read-out: RELATIVE SURVIVING FRACTION, clone D3, 10 μg/ml 6TG): 71% | viability at 20 µg/mL ([2]; read-out: RELATIVE SURVIVING FRACTION, clone D3, 20 μg/ml 6TG): 73% | viability at 5 µg/mL ([2]; read-out: RELATIVE SURVIVING FRACTION, clone P1, 5 μg/ml 6TG): 112% | viability at 10 µg/mL ([2]; read-out: RELATIVE SURVIVING FRACTION, clone P1, 10 μg/ml 6TG): 75% | viability at 20 µg/mL ([2]; read-out: RELATIVE SURVIVING FRACTION, clone P1, 20 μg/ml 6TG): 86% | viability at 5 µg/mL ([2]; read-out: RELATIVE SURVIVING FRACTION, clone P2, 5 μg/ml 6TG): 173% | viability at 10 µg/mL ([2]; read-out: RELATIVE SURVIVING FRACTION, clone P2, 10 μg/ml 6TG): 121% | viability at 20 µg/mL ([2]; read-out: RELATIVE SURVIVING FRACTION, clone P2, 20 μg/ml 6TG): 94% | viability at 5 µg/mL ([2]; read-out: RELATIVE SURVIVING FRACTION, clone P6, 5 μg/ml 6TG): 103% | viability at 10 µg/mL ([2]; read-out: RELATIVE SURVIVING FRACTION, clone P6, 10 μg/ml 6TG): 97% | viability at 20 µg/mL ([2]; read-out: RELATIVE SURVIVING FRACTION, clone P6, 20 μg/ml 6TG): 67% | viability at 5 µg/mL ([2]; read-out: RELATIVE SURVIVING FRACTION, clone P7, 5 μg/ml 6TG): 80% | viability at 10 µg/mL ([2]; read-out: RELATIVE SURVIVING FRACTION, clone P7, 10 μg/ml 6TG): 60% | viability at 20 µg/mL ([2]; read-out: RELATIVE SURVIVING FRACTION, clone P7, 20 μg/ml 6TG): 54% | viability at 5 µg/mL ([2]; read-out: RELATIVE SURVIVING FRACTION, clone P9, 5 μg/ml 6TG): 86% | viability at 10 µg/mL ([2]; read-out: RELATIVE SURVIVING FRACTION, clone P9, 10 μg/ml 6TG): 45% | viability at 20 µg/mL ([2]; read-out: RELATIVE SURVIVING FRACTION, clone P9, 20 μg/ml 6TG): 22% | viability at 10 µg/mL ([2]; read-out: RELATIVE SURVIVING FRACTION, clone P10, 10 μg/ml 6TG): 41% | viability at 20 µg/mL ([2]; read-out: RELATIVE SURVIVING FRACTION, clone P10, 20 μg/ml 6TG): 30% | viability at 5 µg/mL ([2]; read-out: RELATIVE SURVIVING FRACTION, clone P11, 5 μg/ml 6TG): 100% | viability at 10 µg/mL ([2]; read-out: RELATIVE SURVIVING FRACTION, clone P11, 10 μg/ml 6TG): 55% | viability at 20 µg/mL ([2]; read-out: RELATIVE SURVIVING FRACTION, clone P11, 20 μg/ml 6TG): 24% | viability at 5 µg/mL ([2]; read-out: RELATIVE SURVIVING FRACTION, clone P15, 5 μg/ml 6TG): 87% | viability at 10 µg/mL ([2]; read-out: RELATIVE SURVIVING FRACTION, clone P15, 10 μg/ml 6TG): 58% | viability at 20 µg/mL ([2]; read-out: RELATIVE SURVIVING FRACTION, clone P15, 20 μg/ml 6TG): 27% | viability at 5 µg/mL ([2]; read-out: RELATIVE SURVIVING FRACTION, clone P18, 5 μg/ml 6TG): 55% | viability at 10 µg/mL ([2]; read-out: RELATIVE SURVIVING FRACTION, clone P18, 10 μg/ml 6TG): 62% | viability at 20 µg/mL ([2]; read-out: RELATIVE SURVIVING FRACTION, clone P18, 20 μg/ml 6TG): 45%

CCOS(C)(=O)=O [EMS, ethyl methane sulphonate]
EST. INITIAL GROWTH DELAY [3]: 0 | viability at 24 h [4]: 0.12%

CN(N=O)C(N)=O [MNU, methylnitrosourea]
stability of electronic absorption spectrum in solution [5]: more than 60 minutes | EST. INITIAL GROWTH DELAY [3]: 0 | absolute plating efficiency in the absence of 6TG, stable maximum [3]: about 0.28 clones observed/particle plated | population increase before the culture's apparent cessation of growth [3]: about 2.25 times | viability at 24 h [4]: 0.1% | survival fraction of one 6TG^R clone ([6]; 1 6TG^R clone, relatively high concentration of MNU): high survival fraction | MNU toxicity, 6TG^S versus 6TG^R clones ([6]; 4 6TG^S and 4 6TG^R clones): the average behavior of the two groups was virtually identical

Reference: patent US4066510A, “Assay for mutagenesis in diploid human lymphoblasts” (Massachusetts Institute of Technology, priority 1976, dated 1978)
